ChEMBL document CHEMBL4842386, “Discovery of Reldesemtiv, a Fast Skeletal Muscle Troponin Activator for the Treatment of Impaired Muscle Function” (J Med Chem, 2021)
pEC50, pIC50: −log10 of the molar value. Converted amounts (≈) assume the structure as drawn. The source made the active and inactive calls. The rule behind the calls is not given here.

Tests used:
Psoas muscle [1] = test: Activation of fast twitch skeletal muscle in rabbit psoas muscle myofibrils by measuring increase in myofibril ATPase activity at 25% calcium concentration; assay type: functional; conditions: Oryctolagus cuniculus
Psoas muscle [2] = test: Increase in psoas muscle force in rabbit skinned single fiber preparation at a calcium concentration that produces a force increase that is 25% of the maximum response in a control preparation by skinned fast skeletal muscle fiber assay; assay type: functional; conditions: Oryctolagus cuniculus
[3] = Metabolic stability in human liver microsomes assessed as intrinsic clearance measured after 90 mins by HPLC/MS/MS analysis; assay type: ADME, Microsome; conditions: read-out: CLH
[4] = target: T1, Nuclear receptor subfamily 1 group I member 2 (Homo sapiens, UniProt O75469); test: Transactivation of human PXR transfected in DPX2 cells assessed as CYP3A4 induction at 10 uM by luciferase reporter gene assay; assay type: ADME, cell-based; conditions: dpx2, 10 µM
T1 sequence (O75469 whole entry): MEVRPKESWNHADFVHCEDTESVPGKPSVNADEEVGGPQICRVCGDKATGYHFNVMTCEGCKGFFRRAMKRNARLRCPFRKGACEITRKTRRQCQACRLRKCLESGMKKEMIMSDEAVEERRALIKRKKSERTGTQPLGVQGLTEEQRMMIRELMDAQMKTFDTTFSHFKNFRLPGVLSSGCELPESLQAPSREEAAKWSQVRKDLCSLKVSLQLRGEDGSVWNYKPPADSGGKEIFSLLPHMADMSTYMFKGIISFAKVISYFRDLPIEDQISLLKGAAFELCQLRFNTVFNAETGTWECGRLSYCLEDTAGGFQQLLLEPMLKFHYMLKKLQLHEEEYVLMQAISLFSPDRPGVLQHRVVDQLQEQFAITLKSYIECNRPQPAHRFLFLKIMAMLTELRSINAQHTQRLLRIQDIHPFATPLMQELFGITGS

hERG (KCNH2) = hERG (KCNH2) (Homo sapiens, UniProt Q12809); test: Displacement of [3H]astemizole from human ERG expressed in HEK293 cells at 100 uM relative to control; assay type: cell-based; conditions: HEK293 cells that express hERG, probe [3H]astemizole
[5] = Plasma protein binding in male rat assessed as unbound fraction; assay type: ADME, cell-free
[6] = Clearance in male Sprague-Dawley rat at 1 mg/kg, po administered as single dose measured up to 24 hrs by HPLC analysis; assay type: ADME, organism-based; conditions: in vivo
[7] = Volume of distribution at steady state in male Sprague-Dawley rat at 1 mg/kg, po administered as single dose measured up to 24 hrs by HPLC analysis; assay type: ADME, organism-based; conditions: in vivo
[8] = Metabolic stability in male rat liver microsomes assessed as intrinsic clearance measured after 90 mins by HPLC/MS/MS analysis; assay type: ADME, Microsome; conditions: read-out: CLH
[9] = Intrinsic clearance in male rat hepatocytes; assay type: ADME, cell-based, Hepatocyte; conditions: read-out: CLH
[10] = Drug distribution in Sprague-Dawley rat brain to blood ratio at 100 mg/kg, po by HPLC analysis; assay type: ADME, organism-based
[11] = Drug distribution in Sprague-Dawley rat Soleus muscle to blood ratio at 100 mg/kg, po by HPLC analysis; assay type: ADME, organism-based
[12] = Drug distribution in Sprague-Dawley rat extensor digitorum longus to blood ratio at 100 mg/kg, po by HPLC analysis; assay type: ADME, organism-based
[13] = Drug distribution in Sprague-Dawley rat plasma to blood ratio at 100 mg/kg, po by HPLC analysis; assay type: ADME, organism-based; conditions: in vivo
[14] = Efflux ratio of apparent permeability in human Caco-2 cells; assay type: ADME, cell-based
[15] = Clearance in male Sprague-Dawley rat at 3 mg/kg, po administered as single dose measured up to 24 hrs by HPLC analysis; assay type: ADME, organism-based; conditions: in vivo
[16] = Volume of distribution at steady state in male Sprague-Dawley rat at 3 mg/kg, po administered as single dose measured up to 24 hrs by HPLC analysis; assay type: ADME, organism-based; conditions: in vivo
[17] = Oral bioavailability in male Sprague-Dawley rat at 3 mg/kg administered as single dose measured up to 24 hrs by HPLC analysis; assay type: ADME, organism-based; conditions: in vivo
[18] = Thermodynamic solubility of the compound; assay type: physicochemical; conditions: read-out: Therm_solubility
[19] = test system: Extensor digitorum longus; test: Increase in muscle tension in rat extensor digitorum longus muscle rat model assessed as free plasma concentration to increase muscle tension at subtetanic nerve stimulation rate of 30 Hz; assay type: functional, tissue-based
[20] = target: Voltage-gated inwardly rectifying potassium channel KCNH2 (Homo sapiens, UniProt Q12809); test: Inhibition of human ERG expressed in HEK293 cells at -80 mV holding potential by patch clamp assay; assay type: cell-based
[21] = Oral bioavailability in male Sprague-Dawley rat at 1 mg/kg administered as single dose measured up to 24 hrs by HPLC analysis; assay type: ADME, organism-based; conditions: in vivo

Chain of hERG (KCNH2) (Q12809 whole entry): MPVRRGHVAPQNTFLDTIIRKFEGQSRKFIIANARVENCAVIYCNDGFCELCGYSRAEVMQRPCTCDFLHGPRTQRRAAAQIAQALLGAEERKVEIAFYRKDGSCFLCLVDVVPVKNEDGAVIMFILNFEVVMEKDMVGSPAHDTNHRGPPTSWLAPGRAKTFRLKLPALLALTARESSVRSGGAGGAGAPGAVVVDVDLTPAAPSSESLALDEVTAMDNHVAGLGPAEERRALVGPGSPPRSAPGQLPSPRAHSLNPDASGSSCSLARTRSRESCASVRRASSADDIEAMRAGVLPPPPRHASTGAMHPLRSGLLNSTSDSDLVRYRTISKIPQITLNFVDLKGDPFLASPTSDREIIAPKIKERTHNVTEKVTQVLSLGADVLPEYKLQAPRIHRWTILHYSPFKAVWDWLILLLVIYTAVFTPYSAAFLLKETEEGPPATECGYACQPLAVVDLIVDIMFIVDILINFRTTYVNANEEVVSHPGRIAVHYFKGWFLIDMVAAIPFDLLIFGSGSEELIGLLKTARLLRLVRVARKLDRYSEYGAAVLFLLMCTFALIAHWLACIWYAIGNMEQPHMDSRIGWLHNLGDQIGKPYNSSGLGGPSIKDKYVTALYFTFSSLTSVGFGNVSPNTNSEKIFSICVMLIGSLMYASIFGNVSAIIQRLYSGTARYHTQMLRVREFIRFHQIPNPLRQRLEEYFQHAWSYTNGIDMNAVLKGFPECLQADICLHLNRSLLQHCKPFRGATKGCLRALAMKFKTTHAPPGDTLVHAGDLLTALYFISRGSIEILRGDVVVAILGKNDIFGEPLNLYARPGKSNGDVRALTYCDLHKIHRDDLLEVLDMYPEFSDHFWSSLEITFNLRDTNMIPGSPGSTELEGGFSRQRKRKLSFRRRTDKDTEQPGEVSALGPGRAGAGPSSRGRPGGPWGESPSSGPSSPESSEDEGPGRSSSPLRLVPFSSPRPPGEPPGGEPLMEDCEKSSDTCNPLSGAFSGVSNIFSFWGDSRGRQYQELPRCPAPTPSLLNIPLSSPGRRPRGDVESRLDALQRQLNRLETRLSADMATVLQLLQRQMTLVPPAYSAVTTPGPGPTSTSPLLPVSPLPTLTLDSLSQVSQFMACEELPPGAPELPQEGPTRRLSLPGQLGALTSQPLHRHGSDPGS
Chain of Voltage-gated inwardly rectifying potassium channel KCNH2 (Q12809 whole entry): as above

NC(=O)c1ccn(-c2ccc(NCC3(c4ncccc4F)CCC3)nn2)n1
EC40 (Psoas muscle [1]): 22700 nM

CC(C)CCNc1nc(Cc2ccc(F)cc2)ns1
EC40 (Psoas muscle [1]): > 49000 nM

NC(=O)c1cc(-c2ccc(NCC3(c4ncccc4F)CCC3)nn2)ncn1
EC40 (Psoas muscle [1]): 4400 nM

NC(=O)c1cnn(-c2ccc(NC[C@]3(c4ncccc4F)C[C@H](F)C3)nn2)c1
EC30 (Psoas muscle [2]): 1100 nM
EC40 (Psoas muscle [1]): 800 nM
CLint scaled [3]: < 14 mL/min/kg
Activity [4]: 7%
inhibition at 100 µM (hERG (KCNH2)): 16%
fraction unbound [5]: 0.55
CL/F [6]: 115 mL/min/kg
Vdss [7]: 2.6 L/kg
CLint scaled [8]: 30 mL/min/kg
CLint scaled [9]: 90 mL/min/kg

NC(=O)c1cccc(-c2cnc(NC[C@]3(c4ncccc4F)C[C@H](F)C3)nc2)c1
EC30 (Psoas muscle [2]): 800 nM
EC40 (Psoas muscle [1]): 300 nM
CLint scaled [3]: < 14 mL/min/kg
Activity [4]: 68%
inhibition at 100 µM (hERG (KCNH2)): 46%
fraction unbound [5]: 0.15
Kp [10]: 0.15
Kp [11]: 1.16
Kp [12]: 1.2
Ratio [13]: 1.85
efflux ratio [14]: 1.8
CL/F [15]: 59 mL/min/kg
Vdss [16]: 1.7 L/kg
bioavailability [17]: 21%
CLint scaled [8]: 38 mL/min/kg
CLint scaled [9]: 38 mL/min/kg

CC(C)(CNc1nsc(-c2cccc(C(N)=O)c2)n1)c1ccc(F)cc1
EC30 (Psoas muscle [2]): 7100 nM
EC40 (Psoas muscle [1]): 500 nM

CC(C)(CNc1nc(-c2cccc(C(N)=O)c2)ns1)c1ccc(F)cc1
EC30 (Psoas muscle [2]): 1400 nM
EC40 (Psoas muscle [1]): 500 nM
CLint scaled [3]: 11 mL/min/kg
solubility thermodynamic [18]: < 27 µM

Fc1ccc(CCNc2nc(Cc3ccc(F)cc3)ns2)cc1
EC40 (Psoas muscle [1]): 9900 nM

NC(=O)c1cnc(-c2ccc(NCC3(c4ncccc4F)CCC3)nn2)o1
EC30 (Psoas muscle [2]): 5400 nM
EC40 (Psoas muscle [1]): 3900 nM

CC(C)(CNc1nc(-c2ccc(C(N)=O)cc2)ns1)c1ccc(F)cc1
EC30 (Psoas muscle [2]): 2300 nM
EC40 (Psoas muscle [1]): 500 nM
CLint scaled [3]: 9 mL/min/kg
solubility thermodynamic [18]: < 27 µM

CC(C)(CNc1ncc(-c2cccc(C(N)=O)c2)cn1)c1ccc(F)cc1
EC30 (Psoas muscle [2]): 7800 nM
EC40 (Psoas muscle [1]): 8700 nM
CLint scaled [3]: 6 mL/min/kg

NC(=O)c1cccc(-c2ccc(NCC3(c4ccccn4)CCC3)nn2)c1
EC30 (Psoas muscle [2]): 900 nM
EC40 (Psoas muscle [1]): 500 nM
CLint scaled [3]: < 7 mL/min/kg

NC(=O)c1cnn(-c2ccc(NCC3(c4ncccc4F)CC(F)(F)C3)nn2)c1
EC30 (Psoas muscle [2]): 4000 nM
EC40 (Psoas muscle [1]): 2600 nM

C#Cc1cnc2nc(O)n(C(CC)CC)c2n1 [TIRASEMTIV]
pEC50 [19]: 5.22
fraction unbound [5]: 0.05
Kp [10]: 0.27
Kp [11]: 0.3
Ratio [13]: 1.62
efflux ratio [14]: 0.9

CN(CC1(c2ccccn2)CCC1)c1ccc(-c2cccc(C(N)=O)c2)nn1
EC40 (Psoas muscle [1]): > 49000 nM

NC(=O)c1cccc(-c2ccc(NCC3(c4ccc(F)cc4)CCC3)nn2)c1
EC30 (Psoas muscle [2]): 600 nM
EC40 (Psoas muscle [1]): 200 nM
CLint scaled [3]: 15 mL/min/kg

NC(=O)c1cccc(-c2ccc(NCC3(c4ncccc4F)CCC3)nn2)c1
EC30 (Psoas muscle [2]): 500 nM
EC40 (Psoas muscle [1]): 300 nM
CLint scaled [3]: 11 mL/min/kg

NC(=O)c1cnn(-c2cnc(NC[C@]3(c4ncccc4F)C[C@H](F)C3)nc2)c1
EC30 (Psoas muscle [2]): 3300 nM
EC40 (Psoas muscle [1]): 1200 nM
CLint scaled [3]: < 14 mL/min/kg

CNC(=O)c1cccc(-c2cnc(NC[C@]3(c4ncccc4F)C[C@H](F)C3)nc2)c1
EC30 (Psoas muscle [2]): 500 nM
EC40 (Psoas muscle [1]): 900 nM
CLint scaled [3]: < 7 mL/min/kg
Activity [4]: 31%
inhibition at 100 µM (hERG (KCNH2)): 42%
fraction unbound [5]: 0.27
Kp [10]: 0.027
Kp [11]: 0.53
Kp [12]: 0.54
Ratio [13]: 1.15
efflux ratio [14]: 10
CL/F [15]: 52 mL/min/kg
Vdss [16]: 2.6 L/kg
CLint scaled [8]: 14 mL/min/kg
CLint scaled [9]: < 32 mL/min/kg

NC(=O)c1cnn(-c2ccc(NCC3(c4ncccc4F)CCC3)nn2)c1
EC30 (Psoas muscle [2]): 700 nM
EC40 (Psoas muscle [1]): 500 nM
CLint scaled [3]: < 14 mL/min/kg
inhibition at 100 µM (hERG (KCNH2)): 19%
pIC50 [20]: < 4.00
fraction unbound [5]: 0.42
CL/F [6]: 136 mL/min/kg
Vdss [7]: 2.2 L/kg
bioavailability [21]: 12%
CLint scaled [8]: 30 mL/min/kg
CLint scaled [9]: 378 mL/min/kg

NC(=O)c1cccc(-c2ccc(NCC3(c4ccc(F)cn4)CCC3)nn2)c1
EC30 (Psoas muscle [2]): 2300 nM
EC40 (Psoas muscle [1]): 3500 nM
CLint scaled [3]: < 7 mL/min/kg

CC(C)(CNc1nc(-c2ccccc2)ns1)c1ccc(F)cc1
EC40 (Psoas muscle [1]): 8900 nM

CN(C)C(=O)c1cccc(-c2nsc(NCC(C)(C)c3ccc(F)cc3)n2)c1
EC30 (Psoas muscle [2]): 3100 nM
EC40 (Psoas muscle [1]): 2900 nM

CC(C)(CNc1cnc(-c2cccc(C(N)=O)c2)cn1)c1ccc(F)cc1
EC30 (Psoas muscle [2]): inactive
EC40 (Psoas muscle [1]): 800 nM

NC(=O)c1cccc(-c2ccc(NCC3(c4cnccn4)CCC3)nn2)c1
EC40 (Psoas muscle [1]): 46100 nM
CLint scaled [3]: < 7 mL/min/kg

CC(CNc1nc(Cc2ccc(F)cc2)ns1)c1ccc(Cl)cc1 (stereo not drawn)
EC30 (Psoas muscle [2]): 16700 nM
EC40 (Psoas muscle [1]): 1100 nM
solubility thermodynamic [18]: < 27 µM

Fc1ccc(Cc2nsc(NCCc3ccc(Cl)cc3)n2)cc1
EC30 (Psoas muscle [2]): 13700 nM
EC40 (Psoas muscle [1]): 4300 nM

NC(=O)c1cnc(-c2ccc(NCC3(c4ncccc4F)CCC3)nn2)s1
EC30 (Psoas muscle [2]): 400 nM
EC40 (Psoas muscle [1]): 100 nM
pIC50 [20]: < 4.00

CC(C)(CNc1nc(Cc2ccc(F)cc2)ns1)c1ccc(Cl)cc1
EC30 (Psoas muscle [2]): 7400 nM
EC40 (Psoas muscle [1]): 600 nM

NC(=O)c1nccc(-c2ccc(NCC3(c4ncccc4F)CCC3)nn2)n1
EC40 (Psoas muscle [1]): > 49000 nM

NC(=O)c1ccn(-c2ccc(NCC3(c4ncccc4F)CCC3)nn2)c1
EC30 (Psoas muscle [2]): 1100 nM
EC40 (Psoas muscle [1]): 900 nM
CLint scaled [3]: < 14 mL/min/kg
Activity [4]: 43%
inhibition at 100 µM (hERG (KCNH2)): 27%
pIC50 [20]: 4.01
fraction unbound [5]: 0.35
CL/F [6]: 73 mL/min/kg
Vdss [7]: 2.4 L/kg
CLint scaled [8]: 26 mL/min/kg
CLint scaled [9]: 207 mL/min/kg

CC(C)(CNc1cnc(-c2cccc(C(N)=O)c2)nc1)c1ccc(F)cc1
EC40 (Psoas muscle [1]): 3600 nM

CC(C)(CNc1ccc(-c2cccc(C(N)=O)c2)nn1)c1ccc(F)cc1
EC30 (Psoas muscle [2]): 3000 nM
EC40 (Psoas muscle [1]): 1200 nM
CLint scaled [3]: 8 mL/min/kg
solubility thermodynamic [18]: 86 µM (≈ 31.3 µg/mL)

CC(Cc1ccc(Cl)cc1)Nc1nc(Cc2ccc(F)cc2)ns1 (stereo not drawn)
EC40 (Psoas muscle [1]): 22100 nM

CC(C)(CNc1ccc(-c2cccc(C(N)=O)c2)nc1)c1ccc(F)cc1
EC40 (Psoas muscle [1]): 300 nM

CC(C)(CNc1ncns1)c1ccc(F)cc1
EC40 (Psoas muscle [1]): 8400 nM
CLint scaled [3]: 30 mL/min/kg

NC(=O)c1ccn(-c2cnc(NCC3(c4ncccc4F)CCC3)nc2)c1
EC30 (Psoas muscle [2]): 1400 nM
EC40 (Psoas muscle [1]): 1300 nM
CLint scaled [3]: < 14 mL/min/kg
inhibition at 100 µM (hERG (KCNH2)): 43%

CC(C)(CNc1ccc(-c2cccc(C(N)=O)c2)cn1)c1ccc(F)cc1
EC30 (Psoas muscle [2]): 1500 nM
EC40 (Psoas muscle [1]): 500 nM
CLint scaled [3]: 7 mL/min/kg

CN(C)C(=O)c1cnn(-c2ccc(NCC3(c4ncccc4F)CCC3)nn2)c1
EC40 (Psoas muscle [1]): 20200 nM

COCCCc1nsc(NCC(C)(C)c2ccc(F)cc2)n1
EC40 (Psoas muscle [1]): 2500 nM

Fc1ccc(Cc2nsc(NCCc3ccccc3)n2)cc1
EC40 (Psoas muscle [1]): 23300 nM
